Data taken from ChEMBL document CHEMBL1125278, “Novel cerebroprotective agents with central nervous system stimulating activity. 2. Synthesis and pharmacology of the 1-(acylamino)-7-hydroxyindan derivatives” (1991).
Values joined by “and” are separate entries in the source; they are usually repeats but may differ in a detail not shown here. Equal entries are not always repeated.

Tests used:
Type in all cases: functional
Mus musculus [1] = test: Time of recovery of spontaneous movement (SMT) in seconds was measured after administration of 10 mg/kg orally in mice for the promotional effect on recovery from coma.; settings: route oral
Mus musculus [2] = test: Time of recovery of spontaneous movement (SMT) in seconds was measured after administration of 1 mg/kg orally in mice for the promotional effect on recovery from coma.; settings: route oral
Mus musculus [3] = test: Spontaneous movement (SMT) in seconds, was measured after oral administration of 30 mg/kg in mice to test for promoting effects on recovery from coma.
Mus musculus [4] = test: Time of recovery of righting reflux (RRT) in seconds was measured after oral administration of 3 mg/kg in mice for the promotional effect on recovery from coma.
Mus musculus [5] = test: Time of recovery of righting reflux (RRT) in seconds was measured after oral administration of 30 mg/kg in mice for the promotional effect on recovery from coma.
Mus musculus [6] = test: Time of recovery of righting reflux (RRT) in seconds was measured after oral administration of 10 mg/kg in mice for the promotional effect on recovery from coma.
Mus musculus [7] = test: Time of recovery of righting reflux (RRT) in seconds was measured after oral administration of 1 mg/kg in mice for the promotional effect on recovery from coma.
Mus musculus [8] = test: Time of recovery of spontaneous movement (SMT) in seconds was measured after administration of 3 mg/kg orally in mice for the promotional effect on recovery from coma.; settings: route oral
Mus musculus [9] = test: Antihypoxic effect by the survival time (SVT) in mice at a dose of 3 mg/kg administered intraperitoneally.; settings: route intraperitoneal
Mus musculus [10] = test: Compound was tested for the anesthetic effect and the sleeping time (ST) was recorded at a dose of 3 mg/kg administered subcutaneously.; settings: route subcutaneous
Mus musculus [11] = test: Antihypoxic effect by the ratio of survival time (SVT) of test mice to that of control group at a dose of 10 mg/kg administered intraperitoneally.; settings: route intraperitoneal
Mus musculus [12] = test: Antihypoxic effect tested by the ratio of survival time (SVT) of test mice to that of control group, dosed intraperitoneally at 30 mg/kg; settings: route intraperitoneal
Mus musculus [13] = test: Antihypoxic effect tested by the ratio of survival time (SVT) of test mice to that of control group, dosed orally 30 mg/kg; settings: route oral
Mus musculus [14] = test: Antihypoxic effect by the ratio of survival time (SVT) of test mice to that of control group at a dose of 30 mg/kg administered subcutaneously.; settings: route subcutaneous
Mus musculus [15] = test: Time of recovery of righting reflux (RRT) in seconds was measured after administration of 0.3 mg/kg orally in mice for the promotional effect on recovery from coma.; settings: route oral
Mus musculus [16] = test: Time of recovery of spontaneous movement (SMT) in seconds was measured after administration of 0.3 mg/kg orally in mice for the promotional effect on recovery from coma.; settings: route oral
Mus musculus [17] = test: Time of recovery of righting reflux (RRT) in seconds was measured after administration of 3 mg/kg orally in mice for the promotional effect on recovery from coma.; settings: route oral
Mus musculus [18] = test: Compound was tested for the anesthetic effect and the sleeping time (ST) was recorded at a dose of 3 mg/kg administered orally.
Mus musculus [19] = test: Time of recovery of righting reflux (RRT) in seconds was measured after administration of 1 mg/kg orally in mice for the promotional effect on recovery from coma.; settings: route oral
Mus musculus [20] = test: Compound was tested for the anesthetic effect and the sleeping time (ST) was recorded at a dose of 10 mg/kg administered orally.
Mus musculus [21] = test: Compound was tested for the anesthetic effect and the sleeping time (ST) was recorded at a dose of 1 mg/kg administered orally.
Mus musculus [22] = test: Time of recovery of righting reflux (RRT) in seconds was measured after iv administration of 0.625 mg/kg in mice for the promotional effect on recovery from coma.
Mus musculus [23] = test: Time of recovery of righting reflux (RRT) in seconds was measured after iv administration of 1.25 mg/kg in mice for the promotional effect on recovery from coma.
Mus musculus [24] = test: Time of recovery of righting reflux (RRT) in seconds was measured after iv administration of 2.5 mg/kg in mice for the promotional effect on recovery from coma.
Mus musculus [25] = test: Antihypoxic effect by the ratio of survival time (SVT) of test mice to that of control group at a dose of 0.3 mg/kg administered intraperitoneally.; settings: route intraperitoneal
Mus musculus [26] = test: Antihypoxic effect by the ratio of survival time (SVT) of test mice to that of control group at a dose of 1 mg/kg administered intraperitoneally.; settings: route intraperitoneal
Mus musculus [27] = test: Antihypoxic effect by the ratio of survival time (SVT) of test mice to that of control group at a dose of 3 mg/kg administered intraperitoneally.; settings: route intraperitoneal
Mus musculus [28] = test: Time of recovery of spontaneous movement (SMT) in seconds was measured after iv administration of 0.625 mg/kg in mice for the promotional effect on recovery from coma.
Mus musculus [29] = test: Time of recovery of spontaneous movement (SMT) in seconds was measured after iv administration of 1.25 mg/kg in mice for the promotional effect on recovery from coma.
Mus musculus [30] = test: Time of recovery of spontaneous movement (SMT) in seconds was measured after iv administration of 2.5 mg/kg in mice for the promotional effect on recovery from coma.
Mus musculus [31] = test: Compound was tested for the anesthetic effect and the sleeping time (ST) was recorded at a dose of 0.3 mg/kg administered intraperitoneally.; settings: route intraperitoneal
Mus musculus [32] = test: Compound was tested for the anesthetic effect and the sleeping time (ST) was recorded at a dose of 1 mg/kg administered intraperitoneally.; settings: route intraperitoneal
Mus musculus [33] = test: Compound was tested for the anesthetic effect and the sleeping time (ST) was recorded at a dose of 3 mg/kg administered intraperitoneally.; settings: route intraperitoneal
Mus musculus [34] = test: Time of recovery of spontaneous movement (SMT) in seconds was measured after administration of 10 mg/kg intraperitoneally in mice for the promotional effect on recovery from coma.; settings: route intraperitoneal
Mus musculus [35] = test: Time of recovery of righting reflux (RRT) in seconds was measured after administration of 100 mg/kg intraperitoneally in mice for the promotional effect on recovery from coma.; settings: route intraperitoneal
Mus musculus [36] = test: Time of recovery of spontaneous movement (SMT) in seconds was measured after administration of 100 mg/kg intraperitoneally in mice for the promotional effect on recovery from coma.; settings: route intraperitoneal
Mus musculus [37] = test: Time of recovery of spontaneous movement (SMT) in seconds was measured after administration of 30 mg/kg intraperitoneally in mice for the promotional effect on recovery from coma.; settings: route intraperitoneal
Mus musculus [38] = test: Time of recovery of righting reflux (RRT) in seconds was measured after administration of 30 mg/kg intraperitoneally in mice for the promotional effect on recovery from coma.; settings: route intraperitoneal
Mus musculus [39] = test: Time of recovery of righting reflux (RRT) in seconds was measured after administration of 40 mg/kg orally in mice for the promotional effect on recovery from coma.; settings: route oral
Mus musculus [40] = test: Antihypoxic effect by the ratio of survival time (SVT) of test mice to that of control group at a dose of 40 mg/kg administered intraperitoneally.; settings: route intraperitoneal
Mus musculus [41] = test: Time of recovery of spontaneous movement (SMT) in seconds was measured after administration of 40 mg/kg orally in mice for the promotional effect on recovery from coma.; settings: route oral
Mus musculus [42] = test: Time of recovery of righting reflux (RRT) in seconds was measured after administration of 10 mg/kg intraperitoneally in mice for the promotional effect on recovery from coma.; settings: route intraperitoneal
Mus musculus [43] = test: Antihypoxic effect by the ratio of survival time (SVT) of test mice to that of control group at a dose of 20 mg/kg administered intraperitoneally.; settings: route intraperitoneal
Mus musculus [44] = test: Compound was tested for the anesthetic effect and the sleeping time (ST) was recorded at a dose of 10 mg/kg administered intraperitoneally.; settings: route intraperitoneal

With `Cc1cc(C)c2c(c1O)C(N)C(C)(C)C2` (centres undefined) the SMT (Mus musculus [1]) was 62.5 s, the SMT (Mus musculus [2]) was 92.3 s and the SMT (Mus musculus [3]) was 42 s. It also gave an RRT (Mus musculus [4]) of 66.2 s, an RRT (Mus musculus [5]) of 37.2 s and an RRT (Mus musculus [6]) of 54.8 s. For the same compound, the RRT (Mus musculus [7]) was 62.8 s, the SMT (Mus musculus [8]) was 105.8 s and the SVT (Mus musculus [9]) was 156.2%. For the same compound, the ST (Mus musculus [10]) was 112 s and 82.1 s and 76.1 s, the SVT (Mus musculus [11]) was 217% and the SVT (Mus musculus [12]) was 298.1%. The SVT (Mus musculus [13]) was 142.1% and the SVT (Mus musculus [14]) was 298.2%.
Work on `COc1cccc(N2CCN(CC(=O)NC3c4c(O)c(C)cc(C)c4CC3(C)C)CC2)c1` (centres undefined) yielded an SMT (Mus musculus [2]) of 56.2 s, an RRT (Mus musculus [15]) of 72.7 s and an SMT (Mus musculus [16]) of 66.5 s. The SMT (Mus musculus [3]) was 46 s, the RRT (Mus musculus [5]) was 48.3 s and the RRT (Mus musculus [17]) was 43.6 s. For the same compound, the SMT (Mus musculus [8]) was 45.3 s, the SVT (Mus musculus [9]) was 153.5% and the ST (Mus musculus [18]) was 84.8 s. The SVT (Mus musculus [11]) was 176.4%, the RRT (Mus musculus [19]) was 58 s and the SVT (Mus musculus [12]; 30 mg/kg) was 169.1% and 206.7%. For the same compound, the SVT (Mus musculus [13]) was 135.4%, the ST (Mus musculus [20]) was 71.4 s and the ST (Mus musculus [21]) was 92.7 s.
Compound `NC(=O)[C@@H]1CCCN1C(=O)[C@H](Cc1c[nH]cn1)NC(=O)[C@@H]1CCC(=O)N1` [PROTIRELIN] has an RRT (Mus musculus [22]) of 100.1 s, an RRT (Mus musculus [23]) of 34.1 s and an RRT (Mus musculus [24]) of 40.8 s. For the same compound, the SVT (Mus musculus [25]) was 83.8%, the SVT (Mus musculus [26]) was 47.1% and the SVT (Mus musculus [12]) was 43.4%. It also gave an SVT (Mus musculus [27]) of 43.4%, an SMT (Mus musculus [28]) of 118.2 s and an SMT (Mus musculus [29]) of 48.2 s. The SMT (Mus musculus [30]) was 40.9 s, the ST (Mus musculus [31]) was 83.1 s and the ST (Mus musculus [32]) was 70.7 s. It also gave an ST (Mus musculus [33]) of 73.2 s.
With `CCCC(C)C1(CC)C(=O)N=C([O-])NC1=O.[Na+]` (centres undefined) [PENTOBARBITAL SODIUM] the SMT (Mus musculus [34]) was 176.3 s, the RRT (Mus musculus [35]) was 494 s and the SMT (Mus musculus [36]) was 283 s. For the same compound, the SMT (Mus musculus [37]) was 283 s, the RRT (Mus musculus [38]) was 494 s and the RRT (Mus musculus [39]) was 494 s. For the same compound, the SVT (Mus musculus [40]) was 306.7% and 443.6%, the SMT (Mus musculus [41]) was 283 s and the SVT (Mus musculus [11]) was 134.9%. For the same compound, the RRT (Mus musculus [42]) was 175.5 s, the SVT (Mus musculus [43]) was 218.5% and the ST (Mus musculus [44]) was 133 s.
